Experiments:
[1] = tested on: gamma globin gene expression (gamma3'PE reporter) in K562 cells; assay: gamma globin promoter-luciferase reporter assay in stably transfected gamma3'PE K562 cells; conditions: for reporter gene activity relative to VA or IVA (FIG. 5): 24 hours, fold-induction relative to isovaleric acid; for fold induction at 5000 µM: Homo sapiens, K562, 72 h, read-out: fold induction of reporter gene activity (FIG. 6); for induction of gamma-globin reporter gene expression over time course (FIG. 3): 24-122 hr, normalized to viable cells
Description: The gamma globin 5' promoter and 3' enhancer fragments, alone or in combination with each other or another fragment, were inserted into restriction endonuclease sites flanking the coding sequences of the luciferase gene in pGL2 using standard recombinant DNA techniques (pGL2 was obtained commercially from Promega Biotech). Constructs were prepared which contained: 1) the gamma globin promoter alone upstream of the luciferase gene (gamma); 2) the gamma globin promoter upstream of the luciferase gene and the gamma globin 3' enhancer downstream of the luciferase gene (gamma3'PE); 3) the gamma globin promoter upstream of the luciferase gene and the SV40 enhancer downstream of the luciferase gene (gammaSV40); 4) the beta globin promoter upstream of the luciferase gene and the gamma globin 3' enhancer downstream of the luciferase gene Coeta3'PE); and 5) hypersensitive sites 2 and 3 G-IS2 and HS3) of the 5' globin enhancer upstream of the gamma globin promoter upstream of the luciferase gene and the gamma globin 3' enhancer downstream of the luciferase gene (HS2/3gamma3'PE). These constructs are illustrated schematically in FIG. 2.
The gamma globin-luciferase reporter gene constructs described in Example 1 were introduced into a human erythroleukemia cell line K562 (ATCC No. CCL 243). To create stable transfectants, K562 cells (5×10^6) in log phase were suspended in 400 μl HEPES buffered saline and then combined with 33.5 μg salmon testes DNA (Sigma), 1.5 μg neo plasmid (pPMT) and 15 μg reporter gene plasmid supercoiled that had been co-precipitated and suspended in 400 μl HEPES buffered saline. The DNA-cell mixture was electroporated at settings of 0.25 KV and 960 μFD using a Gene Pulser (BioRad Inc.) electropotation apparatus.
The cells were allowed to recover 10 minutes at room temperature, then added to 10 ml complete RPMI cell culture medium. Cell debris was removed by centrifugation at 1000 rpm for 5 minutes. The live cells were suspended in 20 ml RPMI in 2×10 cm dishes and grown in non-selective media for 48 hours. Stably transfected cells were then selected by growing the cells in media containing 300 μg/ml G418 for about one month. During this time the cells were split 1:5 every 3 to 4 days. Once the lines were stable, they were carried in 100 μg/ml G418. The cell lines were designated according to the reporter gene construct that was introduced into the cell line. For example, a cell line carrying the gamma'3PE construct was designated gamma3'PE. Transient transfections were carried out similarly except that the neo plasmid was omitted from the electroporation solution and the cells were not subjected to G418 selection.
K562 host cells carrying gamma globin-reporter gene constructs were used to lo screen compounds for their ability to induce globin gene expression, as measured by increased reporter gene activity in the host cells upon treatment with the compound. The host cells described in Example 2 were grown to log phase cells and plated at a density of 2×10^5 /ml in RPMI media without G418. After 24 hours, compounds to be assayed for their ability to induce globin gene expression were dissolved in RPMI media at a concentration of 5 mM and added to the K562 stable transfectants. Mock-treated stably transfected K562 cells served as a negative control. The cells were incubated with the test compounds at 37° C. for various time periods (e.g., 24, 50, 74 and 122 hours).
After induction with the test compounds, the cells were harvested, lysed and assayed for reporter gene activity (i.e., luciferase activity) as follows. Cells were collected, washed once with PBS and lysed in 200 μl Cell Culture Lysis 1 X Reagent (Promega Luciferase Assay System) consisting of 25 mM Tris-Phosphate pH 7.8; 2 mM DTT; 2 mM 1,2-diaminocyclohexane-N,N,N,N-tetraacetic acid; 10% glycerol; 1% Triton X-100.

[2] = in vitro; conditions: human, k562 cells
Description: (§1) To normalize luciferase units to the number of viable cells, parallel cell viability assays were performed using 3-(4,5-dimethylthiazol-2-yl)-2,5-diphenyltetrazolium bromide (MTT) (Vistica, D. T. et al. (1991) Cancer Res. 51:2515-2520). Transfected K562 cells were plated in 96 well dishes at a density of 2×10^4 and 2×10^3 cells per 100 μl per well. 24 hours later, the cells were treated with test compounds (at a final concentration of 5 mM). At 24, 50, 74 or 122 hours after treatment, 50 μl of 3 mg/ml MTT in PBS was added to each well. The 96 well plate was then incubated at 37° C. for 4 to 5 hours. The formazan derivatives formed from tetrazolium by viable cells were solubilized by the addition of 50 μl/well 25% SDS, pH 3, overnight at 37° C. The plates were than read at a wavelength of 550 nm.

[3] = tested on: K562 cells; assay: in vitro
Description: as §1

[4] = tested on: gamma globin reporter gene activity in gamma3'PE K562 cells (protein kinase C activation); assay: effect of indolactam V stereoisomers on basal and BA-induced reporter gene activity; assay type: cell-based, human; conditions: for effect on BA-induced globin gene expression (fold increment vs untreated cells) / effect on basal level globin gene expression: 11 μM or 0.4 μM; for effect on BA-induced globin gene expression (fold increment vs untreated cells): 1 hour before 5 mM BA for 24 hours; for effect on basal level globin gene expression: no BA
Description: The role of activated protein kinase C (pKC) in the activation of gamma globin gene expression by BA was investigated. […] The chemical structures of these compounds are shown in FIG. 13, panel A and B, respectively. Gamma3'PE cells were pre-incubated with either inducer (at 11 μM or 0.4 μM) or left untreated for 1 hour prior to treatment with 5 mMBA for 24 hours, followed by harvesting of the cells and assaying of luciferase activity. The results are shown in FIG. 14, Panel A (11 μM inducer) and FIG. 14, Panel B (0.4 μM inducer). […] Thus, it appears that these compounds act synergistically through pathways converging at some point downstream of the initial site of action of either inducer.

[5] = tested on: gamma globin mRNA; assay: Northern hybridization of gamma globin mRNA in treated K562 cells; assay type: cell-based, human; conditions: for Raw Value, gamma globin RNA / Normalized Value, gamma globin RNA: K562 cells, 5 mM, 96 hours; for Normalized Value, gamma globin RNA: normalized to 28S ribosomal RNA; for gamma globin mRNA steady state level: vs untreated cells or cells treated with BA
Description: (§2) Total RNA was prepared by the method of McDonald as described in Sambrook et al., (1989) Molecular Cloning: A Laboratory Manual, 2nd Edition, Cold Spring Harbor Laboratory Press. 10 μg total cellular RNA was electrophoresed through agarose gels containing 3.3% formaldehyde. The electrophoresed RNA was then transferred to nitrocellulose filters by standard methods. Each sample was hybridized to specific probes for gamma globin mRNA, mRNA encoding the erythroid specific transcription factor GATA-1 and 28S ribosomal RNA (which was used for standardization). The gamma globin and GATA-1 probes were cDNA probes, which were labeled with ^32 p by random priming reactions (Promega Biotech Inc.). The 28S ribosomal RNA probe was an oligonucleotide having the sequence 5' […] 3' (SEQ ID NO: 3), which was labeled by 5' end labeling using T4 polynucleotide kinase (New England Biolabs). Nucleotide probes were hybridized to the RNA nitrocellulose filters according to standard techniques. After hybridization, radioactive signals on the nitrocellulose filters were directly quantified using a BioRad GS-250 Molecular Imager. mRNA hybridization intensities were normalized to the amount of 28S ribosomal RNA present for each sample.

[6] = tested on: GATA-1 mRNA; assay: Northern hybridization of GATA-1 mRNA in treated K562 cells; assay type: cell-based, human; conditions: for induction of mRNA encoding GATA-1: normalized data; for Normalized Value, GATA-1 RNA: normalized to 28S ribosomal RNA
Description: as §2

[7] = tested on: BA-mediated induction of luciferase activity in gamma3'PE K562 cells; assay: effect of transport inhibitors on BA-induced reporter gene activity in gamma3'PE K562 cells; assay type: cell-based, human; conditions: acetazolamide 1 mM, SITS 10 μM, amiloride 10 μM; 24 hours with BA
Description: To characterize uptake of butyric acid by erythroid cells, K562 cells stably transfected with gamma3'PE were treated with BA in the presence of various transport inhibitors. […] Cells were maintained in the continuous presence of both BA and the inhibitor for 24 hours and then luciferase activity in the cells was measured.

[8] = compared with induction mediated by BA

Structure (SMILES): O=C(O)CCc1ccccc1 [3-phenyl propionic acid]
- reporter gene activity relative to VA or IVA (FIG. 5) ([1]; 5 mM): detectable reporter gene activity, although to a lesser extent than VA or IVA

Structure (SMILES): O=C(O)CCCc1ccccc1 [4-phenyl butyric acid]
- reporter gene activity relative to VA or IVA (FIG. 5) ([1]; 5 mM): detectable reporter gene activity to a slightly greater extent than VA or IVA

Structure (SMILES): C#CCCC(=O)O [4PyA, 4-pentynoic acid]
- fold induction at 5000 µM [1]: ~4
- viability at 72 h, 5000 µM [2]: > 50%
- cell death accompanying gamma globin gene induction [3]: significantly less cell death than induction mediated by BA

Structure (SMILES): O=C(O)CCCCc1ccccc1 [5-phenyl valeric acid]
- reporter gene activity relative to VA or IVA (FIG. 5) ([1]; 5 mM): detectable reporter gene activity, although to a lesser extent than VA or IVA

Structure (SMILES): CC(C)[C@@H]1C(=O)N[C@@H](CO)Cc2c[nH]c3cccc(c23)N1C [(+) indolactam V]
- effect on BA-induced globin gene expression (fold increment vs untreated cells) [4]: same fold increment
- effect on basal level globin gene expression [4]: unaffected

Structure (SMILES): CC(C)[C@H]1C(=O)N[C@H](CO)Cc2c[nH]c3cccc(c23)N1C [(-) indolactam V]
- effect on BA-induced globin gene expression (fold increment vs untreated cells) [4]: same fold increment
- effect on basal level globin gene expression [4]: significant stimulatory effect on basal level globin gene expression
- net increase in gene expression of combined treatment with BA ([4]; combined (-) indolactam V and 5 mM BA): well above the arithmetic sum of the level of induction achieved by either of these compounds separately

Structure (SMILES): CC(C)CC(=O)O [IVA, isovaleric acid]
- Raw Value, gamma globin RNA [5]: 5.94 × 10^6
- Normalized Value, gamma globin RNA [5]: 5.3 × 10^6
- gamma globin mRNA steady state level [5]: higher steady state level of gamma globin mRNA than untreated cells or cells treated with BA
- induction of gamma-globin reporter gene expression over time course (FIG. 3) ([1]; 5 mM): lower but sustained induction of reporter gene expression
- cell death accompanying gamma globin gene induction [3, 8]: significantly less cell death than induction mediated by BA
- induction of mRNA encoding GATA-1 [6]: significant induction of mRNA encoding GATA-1
- Normalized Value, GATA-1 RNA ([6]; K562 cells, 5 mM, 96 hours): 1.3 × 10^6

Structure (SMILES): COCC(=O)O [MoAA, methoxyacetic acid]
- fold induction at 5000 µM [1]: ~4
- viability at 72 h, 5000 µM [2]: > 50%
- cell death accompanying gamma globin gene induction [3, 8]: significantly less cell death than induction mediated by BA

Structure (SMILES): CSCC(=O)O [MtAA, methylthioacetic acid]
- fold induction at 5000 µM [1]: ~5
- viability at 72 h, 5000 µM [2]: > 50%
- cell death accompanying gamma globin gene induction [3]: significantly less cell death than induction mediated by BA

Structure (SMILES): CC(=O)Nc1ccc(C=Cc2ccc(N=C=S)cc2S(=O)(=O)O)c(S(=O)(=O)O)c1 [SITS]
- effect on BA-mediated induction of luciferase activity [7]: did not affect BA-mediated induction of luciferase activity

Structure (SMILES): CCCCC(=O)O [VA, valeric acid]
- fold induction at 5000 µM ([5]; Homo sapiens, K562, 96 h, read-out: Fold Induction, gamma globin RNA): 4.4
- Raw Value, gamma globin RNA [5]: 3.35 × 10^6
- Normalized Value, gamma globin RNA [5]: 3.3 × 10^6
- gamma globin mRNA steady state level [5]: higher steady state level of gamma globin mRNA than untreated cells or cells treated with BA
- induction of gamma-globin reporter gene expression over time course (FIG. 3) ([1]; 5 mM): lower but sustained induction of reporter gene expression
- induction relative to BA at 74 hr (FIG. 4) ([1]; 5 mM, normalized to fold induction by BA, 74 hr): marginally better inducers than BA at 74 hr
- induction relative to BA at 122 hr (FIG. 4) ([1]; 5 mM, normalized to fold induction by BA, 122 hr): significantly better inducers than BA at 122 hr post induction
- cell death accompanying gamma globin gene induction [3]: significantly less cell death than induction mediated by BA
- cell viability relative to untreated cells (FIG. 7) [3]: equivalent to that of untreated cells
- fold induction at 5000 µM ([6]; Homo sapiens, K562, 96 h, read-out: Fold Induction, GATA-1 RNA): 6
- Raw Value, GATA-1 RNA ([6]; K562 cells, 5 mM, 96 hours): 3.96 × 10^5
- induction of mRNA encoding GATA-1 [6]: significant induction of mRNA encoding GATA-1
- Normalized Value, GATA-1 RNA ([6]; K562 cells, 5 mM, 96 hours): 3.5 × 10^5

Structure (SMILES): CC(=O)Nc1nnc(S(N)(=O)=O)s1 [acetazolamide]
- effect on BA-mediated induction of luciferase activity [7]: did not affect BA-mediated induction of luciferase activity

Structure (SMILES): N=C(N)NC(=O)c1nc(Cl)c(N)nc1N [amiloride]
- effect on BA-mediated induction of luciferase activity [7]: did not affect BA-mediated induction of luciferase activity

Structure (SMILES): CCC(=O)O [propionic acid]
- reporter gene activity relative to VA or IVA (FIG. 5) ([1]; 5 mM): detectable reporter gene activity, although to a lesser extent than VA or IVA

Structure (SMILES): CCCCC(=O)OC(=O)CCCC [valeric acid anhydride]
- reporter gene activity relative to VA or IVA (FIG. 5) ([1]; 5 mM): detectable reporter gene activity, although to a lesser extent than VA or IVA

Source: patent US5700640A, “Inducers of gamma globin gene expression and screening assays therefor” (priority 1994, dated 1997)
